From ChEMBL document CHEMBL5653631, “A Potent and Selective ULK1 Inhibitor Suppresses Autophagy and Sensitizes Cancer Cells to Nutrient Stress” (iScience, 2018)
One block for each compound: values may come before it.

How the values were obtained:
[1] = biological target: Serine/threonine-protein kinase PAK 6 (Homo sapiens) (UniProt Q9NQU5); test: Inhibition of human recombinant PAK6 at 500 nM related to control ULK1
[2] = biological target: T1, Inhibitor of nuclear factor kappa-B kinase subunit epsilon (Homo sapiens) (UniProt Q14164); test: Inhibition of human recombinant IKKe at 500 nM related to control ULK1
T1 sequence (whole entry): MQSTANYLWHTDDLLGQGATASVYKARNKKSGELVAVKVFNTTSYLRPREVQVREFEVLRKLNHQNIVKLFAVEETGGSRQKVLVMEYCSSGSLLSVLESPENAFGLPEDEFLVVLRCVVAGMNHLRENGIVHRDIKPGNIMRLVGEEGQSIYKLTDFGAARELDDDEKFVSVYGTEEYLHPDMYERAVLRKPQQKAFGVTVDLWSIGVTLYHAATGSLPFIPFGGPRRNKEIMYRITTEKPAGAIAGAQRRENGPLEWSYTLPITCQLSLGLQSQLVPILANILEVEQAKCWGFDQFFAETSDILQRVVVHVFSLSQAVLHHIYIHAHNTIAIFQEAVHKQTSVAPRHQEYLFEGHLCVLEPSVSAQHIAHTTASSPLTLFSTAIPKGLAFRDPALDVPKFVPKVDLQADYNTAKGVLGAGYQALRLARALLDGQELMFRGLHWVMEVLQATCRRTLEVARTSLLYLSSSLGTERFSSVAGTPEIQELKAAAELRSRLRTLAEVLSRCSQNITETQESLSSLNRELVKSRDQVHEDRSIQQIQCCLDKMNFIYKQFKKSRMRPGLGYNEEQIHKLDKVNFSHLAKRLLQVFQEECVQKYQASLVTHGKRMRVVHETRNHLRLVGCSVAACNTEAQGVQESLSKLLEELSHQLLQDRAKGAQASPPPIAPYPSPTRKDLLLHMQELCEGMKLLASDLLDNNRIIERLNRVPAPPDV

[3] = biological target: Cyclin-dependent kinase-like 3 (Homo sapiens) (UniProt Q8IVW4); test: Inhibition of human recombinant CDKL3 at 500 nM related to control ULK1
Sequence of Cyclin-dependent kinase-like 3 (Homo sapiens) (Q8IVW4 whole entry, looked up): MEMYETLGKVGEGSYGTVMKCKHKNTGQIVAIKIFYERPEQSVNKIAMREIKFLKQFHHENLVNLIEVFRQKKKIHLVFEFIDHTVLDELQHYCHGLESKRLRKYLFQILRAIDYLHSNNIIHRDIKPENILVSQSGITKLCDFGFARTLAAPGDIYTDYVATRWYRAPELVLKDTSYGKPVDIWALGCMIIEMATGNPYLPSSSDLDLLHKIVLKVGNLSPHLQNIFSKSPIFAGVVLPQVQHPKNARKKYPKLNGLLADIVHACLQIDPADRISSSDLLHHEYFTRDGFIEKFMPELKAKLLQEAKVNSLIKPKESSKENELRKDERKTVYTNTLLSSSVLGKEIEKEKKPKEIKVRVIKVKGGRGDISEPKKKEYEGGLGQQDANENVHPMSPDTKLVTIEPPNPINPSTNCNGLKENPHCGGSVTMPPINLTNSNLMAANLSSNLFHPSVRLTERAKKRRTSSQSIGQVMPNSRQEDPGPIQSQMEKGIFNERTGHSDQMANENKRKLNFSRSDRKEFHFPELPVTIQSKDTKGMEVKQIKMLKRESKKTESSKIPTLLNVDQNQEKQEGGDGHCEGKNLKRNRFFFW

[4] = biological target: T2, Protein kinase C zeta type (Homo sapiens) (UniProt Q05513); test: Inhibition of human recombinant PKCz at 500 nM related to control ULK1
T2 sequence (whole entry): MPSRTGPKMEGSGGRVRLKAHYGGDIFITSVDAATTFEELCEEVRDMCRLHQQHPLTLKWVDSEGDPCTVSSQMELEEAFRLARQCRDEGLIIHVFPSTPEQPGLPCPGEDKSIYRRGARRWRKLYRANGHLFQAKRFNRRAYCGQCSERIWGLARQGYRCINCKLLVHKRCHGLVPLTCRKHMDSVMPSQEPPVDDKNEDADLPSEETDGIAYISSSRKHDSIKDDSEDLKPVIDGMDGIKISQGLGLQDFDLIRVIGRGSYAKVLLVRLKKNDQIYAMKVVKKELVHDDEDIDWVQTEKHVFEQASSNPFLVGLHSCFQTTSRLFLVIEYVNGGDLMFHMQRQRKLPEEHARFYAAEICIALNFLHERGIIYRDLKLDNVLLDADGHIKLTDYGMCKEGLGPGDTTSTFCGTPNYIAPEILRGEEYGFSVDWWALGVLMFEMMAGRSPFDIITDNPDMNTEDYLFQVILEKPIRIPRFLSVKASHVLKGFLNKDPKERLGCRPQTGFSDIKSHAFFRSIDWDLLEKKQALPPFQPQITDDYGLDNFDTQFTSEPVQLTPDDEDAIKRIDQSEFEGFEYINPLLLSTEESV

[5] = biological target: T3, MAPK/MAK/MRK overlapping kinase (Homo sapiens) (UniProt Q9UQ07); test: Inhibition of human recombinant MOK at 15 nM related to control ULK1
T3 sequence (whole entry): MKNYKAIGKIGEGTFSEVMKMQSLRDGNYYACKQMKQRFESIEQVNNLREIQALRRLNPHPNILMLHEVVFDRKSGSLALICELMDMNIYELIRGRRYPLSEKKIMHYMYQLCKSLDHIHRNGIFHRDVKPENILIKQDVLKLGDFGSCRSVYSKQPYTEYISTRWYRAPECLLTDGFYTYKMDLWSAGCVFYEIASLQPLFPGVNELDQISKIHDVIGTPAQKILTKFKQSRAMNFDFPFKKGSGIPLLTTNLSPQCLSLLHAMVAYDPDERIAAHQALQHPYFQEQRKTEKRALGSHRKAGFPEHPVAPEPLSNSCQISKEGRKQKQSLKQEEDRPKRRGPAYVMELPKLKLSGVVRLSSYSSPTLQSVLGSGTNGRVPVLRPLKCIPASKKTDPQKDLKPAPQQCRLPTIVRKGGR

[6] = biological target: Mitogen-activated protein kinase kinase kinase 20 (Homo sapiens) (UniProt Q9NYL2); test: Inhibition of human recombinant ZAK at 15 nM in presence of ATP by radiometric assay relative to control
Sequence of Mitogen-activated protein kinase kinase kinase 20 (Homo sapiens) (Q9NYL2 2-800 limits assumed): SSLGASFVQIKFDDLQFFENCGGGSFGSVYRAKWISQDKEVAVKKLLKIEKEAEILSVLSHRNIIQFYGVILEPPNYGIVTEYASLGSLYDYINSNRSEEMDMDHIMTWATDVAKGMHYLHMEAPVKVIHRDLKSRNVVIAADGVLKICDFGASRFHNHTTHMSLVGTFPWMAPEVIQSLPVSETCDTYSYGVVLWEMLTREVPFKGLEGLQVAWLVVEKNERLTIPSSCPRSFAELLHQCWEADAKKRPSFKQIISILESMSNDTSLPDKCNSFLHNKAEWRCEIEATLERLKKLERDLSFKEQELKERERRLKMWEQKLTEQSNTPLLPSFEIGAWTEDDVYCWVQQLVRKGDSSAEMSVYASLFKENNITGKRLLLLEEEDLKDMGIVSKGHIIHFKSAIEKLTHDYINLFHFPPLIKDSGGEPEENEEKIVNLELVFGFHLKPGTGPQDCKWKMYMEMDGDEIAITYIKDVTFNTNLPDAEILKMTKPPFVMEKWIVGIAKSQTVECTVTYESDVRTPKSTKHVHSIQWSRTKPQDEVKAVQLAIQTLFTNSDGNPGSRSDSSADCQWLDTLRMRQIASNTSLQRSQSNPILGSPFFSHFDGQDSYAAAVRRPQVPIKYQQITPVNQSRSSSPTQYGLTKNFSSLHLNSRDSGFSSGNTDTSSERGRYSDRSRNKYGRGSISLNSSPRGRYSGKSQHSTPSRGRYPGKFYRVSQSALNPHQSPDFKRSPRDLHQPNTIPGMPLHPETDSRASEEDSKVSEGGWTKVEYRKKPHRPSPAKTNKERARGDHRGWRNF

[7] = biological target: Mitogen-activated protein kinase 11 (Homo sapiens) (UniProt Q15759); test: Inhibition of human recombinant p38beta at 15 nM related to control ULK1
Sequence of Mitogen-activated protein kinase 11 (Homo sapiens) (Q15759 whole entry): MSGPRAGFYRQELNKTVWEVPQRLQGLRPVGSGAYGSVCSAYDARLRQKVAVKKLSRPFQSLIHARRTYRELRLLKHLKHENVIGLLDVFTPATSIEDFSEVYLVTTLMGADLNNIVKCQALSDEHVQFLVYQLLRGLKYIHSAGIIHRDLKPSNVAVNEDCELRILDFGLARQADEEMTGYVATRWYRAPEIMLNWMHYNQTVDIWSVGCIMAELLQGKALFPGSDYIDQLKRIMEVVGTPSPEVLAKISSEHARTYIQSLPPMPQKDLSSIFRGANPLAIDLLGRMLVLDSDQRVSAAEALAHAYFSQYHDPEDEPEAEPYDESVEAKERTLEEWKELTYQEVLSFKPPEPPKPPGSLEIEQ

[8] = biological target: Ribosomal protein S6 kinase alpha-1 (Homo sapiens) (UniProt Q15418); test: Inhibition of human recombinant RSK1 at 15 nM related to control ULK1
Sequence of Ribosomal protein S6 kinase alpha-1 (Homo sapiens) (Q15418 whole entry): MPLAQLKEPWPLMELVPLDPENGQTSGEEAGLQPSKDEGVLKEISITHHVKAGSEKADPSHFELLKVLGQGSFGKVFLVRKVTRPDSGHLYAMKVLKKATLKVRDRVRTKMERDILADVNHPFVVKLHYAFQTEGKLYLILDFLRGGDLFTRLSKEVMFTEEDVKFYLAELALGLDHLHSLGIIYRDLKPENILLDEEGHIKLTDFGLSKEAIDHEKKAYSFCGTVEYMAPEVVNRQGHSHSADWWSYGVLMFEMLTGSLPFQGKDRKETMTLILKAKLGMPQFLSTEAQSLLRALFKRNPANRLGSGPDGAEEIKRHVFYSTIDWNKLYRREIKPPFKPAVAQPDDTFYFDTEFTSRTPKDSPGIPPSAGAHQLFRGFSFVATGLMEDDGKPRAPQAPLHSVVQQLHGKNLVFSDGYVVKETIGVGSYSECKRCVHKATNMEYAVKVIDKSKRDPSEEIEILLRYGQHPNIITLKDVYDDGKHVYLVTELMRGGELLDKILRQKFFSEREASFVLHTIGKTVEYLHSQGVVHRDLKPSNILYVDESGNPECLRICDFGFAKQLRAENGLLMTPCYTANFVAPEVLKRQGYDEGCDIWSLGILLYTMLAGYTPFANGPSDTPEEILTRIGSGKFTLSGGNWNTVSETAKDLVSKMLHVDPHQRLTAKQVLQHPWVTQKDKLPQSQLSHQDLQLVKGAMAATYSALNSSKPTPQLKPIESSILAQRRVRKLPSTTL

[9] = biological target: Proto-oncogene tyrosine-protein kinase receptor Ret (Homo sapiens) (UniProt P07949); test: Inhibition of human recombinant RET at 15 nM related to control ULK1
Sequence of Proto-oncogene tyrosine-protein kinase receptor Ret (Homo sapiens) (P07949 whole entry): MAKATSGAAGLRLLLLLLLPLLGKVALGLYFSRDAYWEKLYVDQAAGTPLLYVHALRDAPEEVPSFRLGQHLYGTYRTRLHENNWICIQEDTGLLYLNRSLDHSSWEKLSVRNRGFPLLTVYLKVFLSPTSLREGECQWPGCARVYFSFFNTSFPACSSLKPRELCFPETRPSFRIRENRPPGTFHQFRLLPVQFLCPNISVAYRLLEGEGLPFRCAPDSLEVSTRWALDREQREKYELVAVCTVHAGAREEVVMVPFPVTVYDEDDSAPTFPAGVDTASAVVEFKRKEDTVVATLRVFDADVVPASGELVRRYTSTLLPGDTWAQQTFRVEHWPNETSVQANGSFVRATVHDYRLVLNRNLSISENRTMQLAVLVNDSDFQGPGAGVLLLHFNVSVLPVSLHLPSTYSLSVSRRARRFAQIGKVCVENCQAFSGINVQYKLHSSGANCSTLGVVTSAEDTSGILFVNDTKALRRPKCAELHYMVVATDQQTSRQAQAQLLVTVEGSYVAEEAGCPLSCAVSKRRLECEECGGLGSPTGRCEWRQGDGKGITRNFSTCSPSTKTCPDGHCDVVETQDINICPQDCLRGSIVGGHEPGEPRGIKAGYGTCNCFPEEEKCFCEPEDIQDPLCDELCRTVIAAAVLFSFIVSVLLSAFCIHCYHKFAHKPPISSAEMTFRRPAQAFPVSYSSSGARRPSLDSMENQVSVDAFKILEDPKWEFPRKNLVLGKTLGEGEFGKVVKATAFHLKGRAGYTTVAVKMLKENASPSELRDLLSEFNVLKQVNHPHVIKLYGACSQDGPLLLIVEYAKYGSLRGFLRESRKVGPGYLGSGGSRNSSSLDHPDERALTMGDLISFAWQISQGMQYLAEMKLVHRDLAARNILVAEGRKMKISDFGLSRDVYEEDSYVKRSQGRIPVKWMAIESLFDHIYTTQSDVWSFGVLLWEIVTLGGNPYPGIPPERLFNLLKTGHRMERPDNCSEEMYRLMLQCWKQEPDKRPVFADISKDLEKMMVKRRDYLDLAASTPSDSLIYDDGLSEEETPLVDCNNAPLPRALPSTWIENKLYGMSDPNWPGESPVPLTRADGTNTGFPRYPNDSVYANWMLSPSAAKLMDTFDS

[10] = biological target: T4, Inhibitor of nuclear factor kappa-B kinase subunit alpha (Homo sapiens) (UniProt O15111); test: Inhibition of human recombinant IKKa at 40 nM related to control ULK1
T4 sequence (whole entry): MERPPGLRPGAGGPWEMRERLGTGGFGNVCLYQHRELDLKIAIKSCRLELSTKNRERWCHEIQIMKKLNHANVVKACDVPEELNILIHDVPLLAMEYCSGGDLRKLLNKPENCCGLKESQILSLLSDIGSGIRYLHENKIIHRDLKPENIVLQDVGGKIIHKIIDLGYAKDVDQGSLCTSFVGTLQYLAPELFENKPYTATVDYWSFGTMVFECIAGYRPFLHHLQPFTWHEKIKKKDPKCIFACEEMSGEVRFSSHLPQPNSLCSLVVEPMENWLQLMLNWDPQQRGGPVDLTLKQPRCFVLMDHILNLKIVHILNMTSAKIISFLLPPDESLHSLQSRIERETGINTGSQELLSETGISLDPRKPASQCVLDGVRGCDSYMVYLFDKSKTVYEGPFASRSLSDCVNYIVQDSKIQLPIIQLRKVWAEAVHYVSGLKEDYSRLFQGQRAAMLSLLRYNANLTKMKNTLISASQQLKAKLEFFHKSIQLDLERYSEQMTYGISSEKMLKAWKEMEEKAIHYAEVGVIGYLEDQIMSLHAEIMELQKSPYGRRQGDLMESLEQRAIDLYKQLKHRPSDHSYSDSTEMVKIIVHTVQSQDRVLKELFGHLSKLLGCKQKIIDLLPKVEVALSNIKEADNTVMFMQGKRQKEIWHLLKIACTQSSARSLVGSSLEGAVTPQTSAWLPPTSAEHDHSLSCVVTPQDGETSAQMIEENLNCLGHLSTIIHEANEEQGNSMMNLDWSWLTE

Sequence of Serine/threonine-protein kinase PAK 6 (Homo sapiens) (Q9NQU5 whole entry, looked up): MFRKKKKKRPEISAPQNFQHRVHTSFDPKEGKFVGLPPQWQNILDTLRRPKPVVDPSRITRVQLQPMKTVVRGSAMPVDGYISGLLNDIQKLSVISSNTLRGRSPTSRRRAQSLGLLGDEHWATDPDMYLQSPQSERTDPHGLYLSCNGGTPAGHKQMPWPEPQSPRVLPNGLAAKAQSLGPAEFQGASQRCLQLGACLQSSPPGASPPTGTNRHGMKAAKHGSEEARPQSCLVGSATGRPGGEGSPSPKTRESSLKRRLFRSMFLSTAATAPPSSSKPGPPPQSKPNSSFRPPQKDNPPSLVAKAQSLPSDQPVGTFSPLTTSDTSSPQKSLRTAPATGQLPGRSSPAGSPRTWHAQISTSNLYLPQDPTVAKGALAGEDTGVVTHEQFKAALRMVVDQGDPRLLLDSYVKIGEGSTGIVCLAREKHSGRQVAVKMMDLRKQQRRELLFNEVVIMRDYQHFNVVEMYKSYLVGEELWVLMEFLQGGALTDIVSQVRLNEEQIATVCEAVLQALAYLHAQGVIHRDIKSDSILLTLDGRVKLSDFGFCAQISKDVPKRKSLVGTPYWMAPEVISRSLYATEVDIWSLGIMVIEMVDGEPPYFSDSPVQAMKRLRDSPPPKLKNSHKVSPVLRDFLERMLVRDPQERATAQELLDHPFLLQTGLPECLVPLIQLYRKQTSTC

- fold change (FC) [1]: 0.26
- fold change (FC) [2]: 0
- fold change (FC) [3]: 0
- fold change (FC) [4]: 0
Compound: CNC(=O)c1ccccc1Oc1nc(Nc2cc(OC)c(OC)c(OC)c2)ncc1Br

- fold change (FC) [5]: 0.06
- inhibition [6]: 26%
- fold change (FC) [7]: 0.01
- fold change (FC) [8]: 0.26
- fold change (FC) [9]: 0.16
Compound: CC(C)[C@H](NC(=O)c1cc(-c2cnn3cc(-c4ccc(OCCN5CCCCC5)cc4)cnc23)cs1)C(F)(F)F

- fold change (FC) [10]: 0
Compound: O=C(N[C@@H](C1CC1)C(F)(F)F)c1cc(-c2cnn3cc(-c4ccc(F)cc4)cnc23)cs1
